Results: patent US12540131B2 (Merck Sharp & Dohme LLC, priority 2019, dated 2026)

Target: GST tagged truncated human mutant G2019S LRRK2 (Homo sapiens (Human), UniProt Q5S007, G2019S)
Assay: LRRK2 Km ATP LanthaScreen Assay
Type: biochemical
Conditions: G2019S LRRK2, 134 μM ATP (Km ATP), mean values; for IC50: read-out: LRRK2 pIC50 (converted)
Method in brief: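 Enzyme (GST-tagged, truncated) was preincubated with compound for 15 min at RT in 50 mM Tris pH 8.5, 10 mM MgCl2, 0.01% Brij-35, 1 mM EGTA, 2 mM DTT and 0.05 mM orthovanadate. Fluorescein-LRRKtide and 134 μM ATP (Km) were then added for 90 min. EDTA and Tb-anti-pERM antibody stopped the reaction; the TR-FRET 520/495 ratio gave 4-parameter IC50s, reported as mean pIC50.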

GST tagged truncated human mutant G2019S LRRK2, sequence (Q5S007 970-2527 G2019S): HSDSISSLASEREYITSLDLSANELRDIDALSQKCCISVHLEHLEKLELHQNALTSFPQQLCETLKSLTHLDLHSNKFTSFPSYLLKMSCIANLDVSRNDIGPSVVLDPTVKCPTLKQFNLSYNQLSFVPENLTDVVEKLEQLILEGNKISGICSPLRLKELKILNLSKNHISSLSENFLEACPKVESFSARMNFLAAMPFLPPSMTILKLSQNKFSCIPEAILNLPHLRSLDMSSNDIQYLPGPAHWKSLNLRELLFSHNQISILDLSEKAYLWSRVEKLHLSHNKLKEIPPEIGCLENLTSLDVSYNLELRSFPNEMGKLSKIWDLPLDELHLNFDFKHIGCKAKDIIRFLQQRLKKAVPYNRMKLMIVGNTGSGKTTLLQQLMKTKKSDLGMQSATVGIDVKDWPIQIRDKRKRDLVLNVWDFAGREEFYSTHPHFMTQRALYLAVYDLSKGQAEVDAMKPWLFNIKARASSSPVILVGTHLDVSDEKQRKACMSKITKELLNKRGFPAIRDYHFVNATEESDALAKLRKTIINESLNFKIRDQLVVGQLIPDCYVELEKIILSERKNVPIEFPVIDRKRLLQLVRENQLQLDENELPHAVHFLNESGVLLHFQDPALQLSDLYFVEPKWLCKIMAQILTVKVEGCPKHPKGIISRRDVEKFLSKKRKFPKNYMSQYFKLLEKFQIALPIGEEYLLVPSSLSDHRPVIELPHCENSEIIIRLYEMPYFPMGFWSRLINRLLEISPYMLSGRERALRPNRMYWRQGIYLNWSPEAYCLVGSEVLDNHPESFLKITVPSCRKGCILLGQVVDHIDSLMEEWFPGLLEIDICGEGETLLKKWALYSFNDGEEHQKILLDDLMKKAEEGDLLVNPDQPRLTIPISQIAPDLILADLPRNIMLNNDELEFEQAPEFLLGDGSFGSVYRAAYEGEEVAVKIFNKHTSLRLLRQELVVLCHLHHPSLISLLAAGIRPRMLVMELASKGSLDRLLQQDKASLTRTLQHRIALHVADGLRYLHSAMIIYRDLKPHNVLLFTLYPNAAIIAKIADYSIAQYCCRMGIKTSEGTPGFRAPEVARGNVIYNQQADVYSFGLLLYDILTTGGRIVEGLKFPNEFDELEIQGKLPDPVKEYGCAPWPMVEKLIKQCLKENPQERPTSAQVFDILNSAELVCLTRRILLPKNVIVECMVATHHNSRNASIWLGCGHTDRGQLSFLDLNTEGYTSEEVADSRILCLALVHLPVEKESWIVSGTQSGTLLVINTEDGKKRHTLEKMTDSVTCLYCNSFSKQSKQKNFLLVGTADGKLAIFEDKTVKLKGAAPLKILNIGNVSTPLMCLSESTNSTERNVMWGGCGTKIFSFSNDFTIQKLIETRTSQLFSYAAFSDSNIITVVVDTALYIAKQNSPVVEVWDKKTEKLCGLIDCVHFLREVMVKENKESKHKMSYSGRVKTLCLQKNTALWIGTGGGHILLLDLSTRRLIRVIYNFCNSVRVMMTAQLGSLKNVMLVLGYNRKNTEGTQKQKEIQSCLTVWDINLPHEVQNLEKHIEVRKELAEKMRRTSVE

Molecule	LRRK2 pIC50	IC50
O[C@@H]1COCC1N1CC[C@H](c2cc3nc(Nc4cnn(C5CC5(F)F)c4Cl)ncc3cc2Cl)[C@@H](F)C1 (single isomer, unassigned) [Ex-4.9, (R)(3S,4S)(3S,4S) or (R)(3S,4S)(3R,4R) or (R)(3R,4R)(3S,4S) or (R)(3R,4R)(3R,4R) or (S)(3S,4S)(3S,4S) or (S)(3S,4S)(3R,4R) or (S)(3R,4R)(3S,4S) or (S)(3R,4R)(3R,4R) 4-(4-(6-chloro-2-((5-chloro-1-(2,2-difluorocyclopropyl)-1H-pyrazol-4-yl)amino)quinazolin-7-yl)-3-fluoropiperidin-1-yl)tetrahydrofuran-3-ol]	>9.20	
Cc1cc2cnc(Nc3cnn(C4CC4)c3Cl)nc2cc1[C@@H]1CCN([C@]2(C)COC[C@@H]2O)C[C@H]1F (single isomer, unassigned) [Ex-4.149, (3S,4S)(3S,4S) or (3S,4S)(3R,4R) or (3R,4R)(3S,4S) or (3R,4R)(3R,4R) 4-(4-{2-[(5-chloro-1-cyclopropyl-1H-pyrazol-4-yl)amino]-6-methylquinazolin-7-yl}-3-fluoropiperidin-1-yl)-4-methyloxolan-3-ol]	>9.20	
CC1(N2CCC(n3ncc(Nc4ncc5cc(Cl)c(C6CC6(F)F)cc5n4)c3Cl)C(F)C2)COC1 (single isomer, unassigned) [Ex-3.1, (3R,4R)(7S) or (3R,4R)(7R) or (3S,4S)(7S) or (3S,4S)(7R) 6-chloro-N-(5-chloro-1-(3-fluoro-1-(3-methyloxetan-3-yl)piperidin-4-yl)-1H-pyrazol-4-yl)-7-(2,2-difluorocyclopropyl)quinazolin-2-amine]	7.54	
COC[C@H](O)CN1CCC(c2cc3nc(Nc4cnn(C5CC5)c4C)ncc3cc2Cl)CC1 [Ex-4.211, (2R)-1-(4-{6-chloro-2-[(1-cyclopropyl-5-methyl-1H-pyrazol-4-yl)amino]quinazolin-7-yl}piperidin-1-yl)-3-methoxypropan-2-ol]	9.15	
Cc1c(Nc2ncc3cc(Cl)c(C4CCN(C[C@H](O)c5cccc(Cl)c5)CC4)cc3n2)cnn1C1CC1 [Ex-4.194, (1R)-2-(4-{6-chloro-2-[(1-cyclopropyl-5-methyl-1H-pyrazol-4-yl)amino]quinazolin-7-yl}piperidin-1-yl)-1-(3-chlorophenyl)ethan-1-ol]	8.28	
Cc1c(Nc2ncc3cc(Cl)c(C4CCN(C5(C)COC5)CC4)cc3n2)cnn1C(C)(C)C#N [Ex-2.20, 2-[4-({6-chloro-7-[1-(3-methyloxetan-3-yl)piperidin-4-yl]quinazolin-2-yl}amino)-5-methyl-1H-pyrazol-1-yl]-2-methylpropanenitrile]	>9.20	
Cc1cc(Nc2ncc3cc(C)c([C@@H]4CCN([C@H]5COC[C@H]5O)C[C@H]4F)cc3n2)n(C)n1 (single isomer, unassigned) [Ex-5.10, (3S,4S)(3S,4S) or (3S,4S)(3R,4R) or (3R,4R)(3S,4S) or (3R,4R)(3R,4R) 4-(4-{2-[(1,3-dimethyl-1H-pyrazol-5-yl)amino]-6-methylquinazolin-7-yl}-3-fluoropiperidin-1-yl)oxolan-3-ol]	6.66	
Cc1nsc(Nc2ncc3cc(Cl)c([C@@H]4CCN(C5COC5)C[C@H]4F)cc3n2)c1Cl (single isomer, unassigned) [Ex-4.88, (3S,4S) or (3R,4R) 6-chloro-N-(4-chloro-3-methyl-1,2-thiazol-5-yl)-7-[3-fluoro-1-(oxetan-3-yl)piperidin-4-yl]quinazolin-2-amine]		3.8 nM
CC1OCC1N1CC[C@@H](c2cc3nc(Nc4cnn(CC(C)(C)O)c4Cl)ncc3cc2Cl)[C@H](F)C1 (single isomer, unassigned) [Ex-4.70, (3S,4S)(2R,3R) or (3S,4S)(2S,3S) or (3R,4R)(2R,3R) or (3R,4R)(2S,3S) or (3R,4R)(2S,3R) or (3R,4R)(2R,3S) or (3S,4S)(2S,3R) or (3S,4S)(2R,3S) 1-[5-chloro-4-({6-chloro-7-[3-fluoro-1-(2-methyloxetan-3-yl)piperidin-4-yl]quinazolin-2-yl}amino)-1H-pyrazol-1-yl]-2-methylpropan-2-ol]	7.92	
CC1(N2CCC(c3cc4nc(Nc5cnn(C6(C)CC6)c5Cl)ncc4cc3Cl)CC2)COC1 [Ex-8.15, 6-chloro-N-[5-chloro-1-(1-methylcyclopropyl)-1H-pyrazol-4-yl]-7-[1-(3-methyloxetan-3-yl)piperidin-4-yl]quinazolin-2-amine]	>9.20	
Cc1c(Nc2ncc3cc(Cl)c(C4CCN(CC(O)c5ccc(Cl)cc5)CC4)cc3n2)cnn1C1CC1 (single isomer, unassigned) [Ex-4.225, (S) or (R) 2-(4-{6-chloro-2-[(1-cyclopropyl-5-methyl-1H-pyrazol-4-yl)amino]quinazolin-7-yl}piperidin-1-yl)-1-(4-chlorophenyl)ethan-1-ol]		21.4 nM
F[C@@H]1CN(C2COC2)CC[C@H]1c1cc2nc(Nc3cnn(C4CC4)c3Cl)ncc2cc1Cl (single isomer, unassigned) [Ex-4.34, (3S,4S) or (3R,4R) 6-chloro-N-(5-chloro-1-cyclopropyl-1H-pyrazol-4-yl)-7-[3-fluoro-1-(oxetan-3-yl)piperidin-4-yl]quinazolin-2-amine]	9.12	
CC1(n2ncc(Nc3ncc4cc(Cl)c([C@@H]5CCNC[C@H]5F)cc4n3)c2Cl)CC1 (single isomer, unassigned) [Ex-4.91, (3S,4S) or (3R,4R) 6-chloro-N-[5-chloro-1-(1-methylcyclopropyl)-1H-pyrazol-4-yl]-7-(3-fluoropiperidin-4-yl)quinazolin-2-amine]	>9.20	
Cc1cc2cnc(Nc3cnn(C45CC(C4)C5)c3Cl)nc2cc1[C@H]1CCN([C@H]2COC[C@H]2O)C[C@@H]1F (single isomer, unassigned) [Ex-8.36, (3S,4S)(3S,4S) or (3S,4S)(3R,4R) or (3R,4R)(3S,4S) or (3R,4R)(3R,4R) 4-[4-(2-{[1-(bicyclo[1.1.1]pentan-1-yl)-5-chloro-1H-pyrazol-4-yl]amino}-6-methylquinazolin-7-yl)-3-fluoropiperidin-1-yl]oxolan-3-ol]	8.38	
Cc1c(Nc2ncc3cc(Cl)c(C4CCN(CC(O)Cc5ccccc5)CC4)cc3n2)cnn1C1CC1 (single isomer, unassigned) [Ex-4.218, (S) or (R) 1-(4-{6-chloro-2-[(1-cyclopropyl-5-methyl-1H-pyrazol-4-yl)amino]quinazolin-7-yl}piperidin-1-yl)-3-phenylpropan-2-ol]		13.8 nM
Cc1c(Nc2ncc3cc(Cl)c(C4CCN([C@@]5(C)COC[C@H]5O)CC4)cc3n2)cnn1C1CC1 (single isomer, unassigned) [Ex-1.15, (3S,4S) or (3R,4R) 4-(4-(6-chloro-2-((1-cyclopropyl-5-methyl-1H-pyrazol-4-yl)amino)quinazolin-7-yl)piperidin-1-yl)-4-methyltetrahydrofuran-3-ol]	8.16	
Cc1cc2cnc(Nc3cnn(C4CC4(F)F)c3Cl)nc2cc1[C@H]1CCN(C2COC[C@H]2O)C[C@@H]1F (single isomer, unassigned) [Ex-4.140, (R)(3S,4S)(3S,4S) or (R)(3S,4S)(3R,4R) or (R)(3R,4R)(3S,4S) or (R)(3R,4R)(3R,4R) or (S)(3S,4S)(3S,4S) or (S)(3S,4S)(3R,4R) or (S)(3R,4R)(3S,4S) or (S)(3R,4R)(3R,4R) 4-[4-(2-{[5-chloro-1-(2,2-difluorocyclopropyl)-1H-pyrazol-4-yl]amino}-6-methylquinazolin-7-yl)-3-fluoropiperidin-1-yl]oxolan-3-ol]	9.19	
Cn1ncc(Nc2ncc3cc(Cl)c([C@@H]4CCN([C@H]5COC[C@H]5O)C[C@H]4F)cc3n2)c1Cl (single isomer, unassigned) [Ex-4.185, (3S,4S)(3S,4S) or (3S,4S)(3R,4R) or (3R,4R)(3S,4S) or (3R,4R)(3R,4R) 4-(4-{6-chloro-2-[(5-chloro-1-methyl-1H-pyrazol-4-yl)amino]quinazolin-7-yl}-3-fluoropiperidin-1-yl)oxolan-3-ol]	9.17	
Cc1cc(Nc2ncc3cc(Cl)c(C4CCN([C@H]5COC[C@H]5O)CC4)cc3n2)n(C)n1 (single isomer, unassigned) [Ex-2.68, (3S,4S) or (3R,4R) 4-(4-{6-chloro-2-[(1,3-dimethyl-1H-pyrazol-5-yl)amino]quinazolin-7-yl}piperidin-1-yl)oxolan-3-ol]	>9.20	
Cc1c(Nc2ncc3cc(Cl)c(C4CCN([C@]5(C)COC[C@@H]5O)CC4)cc3n2)cnn1C1CC1 (single isomer, unassigned) [Ex-1.16, (3S,4S) or (3R,4R) 4-(4-(6-chloro-2-((1-cyclopropyl-5-methyl-1H-pyrazol-4-yl)amino)quinazolin-7-yl)piperidin-1-yl)-4-methyltetrahydrofuran-3-ol]	>9.20	
N#Cc1cc2cnc(Nc3cnn(C4CC4(F)F)c3Cl)nc2cc1[C@H]1CCN(C2COC2)C[C@@H]1F (single isomer, unassigned) [Ex-6.6, (R)(3S,4S) or (S)(3S,4S) or (R)(3R,4R) or (S)(3R,4R) 2-((5-chloro-1-(2,2-difluorocyclopropyl)-1H-pyrazol-4-yl)amino)-7-(3-fluoro-1-(oxetan-3-yl)piperidin-4-yl)quinazoline-6-carbonitrile]	8.94	
(3S,4S) or (3R,4R) 6-chloro-N-(5-chloro-1-cyclopropyl-1H-pyrazol-4-yl)-7-(3-fluoropiperidin-4-yl)quinazolin-2-amine [Ex-4.1]	9.08	
Clc1cc2cnc(Nc3cnn(C4CC4)c3Cl)nc2cc1C1CCN(C2COC2)C1 (single isomer, unassigned) [Ex-4.33, (S) or (R) 6-chloro-N-(5-chloro-1-cyclopropyl-1H-pyrazol-4-yl)-7-[1-(oxetan-3-yl)pyrrolidin-3-yl]quinazolin-2-amine]		8.13 nM
